In PubChem BioAssay (NCI):
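Dose response: 5 concentrations. Exposure: 48 h. Format: 96-well plates. Endpoint: linear interpolation; highest concentration if not reached. GI50: concentration for 50% inhibition of growth. TGI: concentration producing complete growth inhibition.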

Assays:
Test in all cases: growth of human tumour cells (NCI), 48 h
CAKI-1 renal = tested on: CAKI-1 renal
OVCAR-5 ovarian = tested on: OVCAR-5 ovarian
CCRF-CEM leukemia = tested on: CCRF-CEM leukemia
NCI-H23 lung = tested on: NCI-H23 lung
U251 CNS = tested on: U251 CNS
HCC-2998 colon = tested on: HCC-2998 colon
OVCAR-4 ovarian = tested on: OVCAR-4 ovarian
HCT-15 colon = tested on: HCT-15 colon
HS 578T breast = tested on: HS 578T breast
NCI/ADR-RES ovarian = tested on: NCI/ADR-RES ovarian

SMILES	TGI (CAKI-1 renal) [µM]	TGI (OVCAR-5 ovarian) [µM]	TGI (CCRF-CEM leukemia) [µM]	TGI (NCI-H23 lung) [µM]	TGI (U251 CNS) [µM]	TGI (HCC-2998 colon) [µM]	TGI (OVCAR-4 ovarian) [µM]	TGI (HCT-15 colon) [µM]	GI50 (OVCAR-5 ovarian) [µM]	GI50 (NCI-H23 lung) [µM]	GI50 (U251 CNS) [µM]	GI50 (HS 578T breast) [µM]	TGI (HS 578T breast) [µM]	GI50 (HCC-2998 colon) [µM]	GI50 (NCI/ADR-RES ovarian) [µM]	TGI (NCI/ADR-RES ovarian) [µM]	GI50 (OVCAR-4 ovarian) [µM]	GI50 (HCT-15 colon) [µM]	GI50 (CAKI-1 renal) [µM]	GI50 (CCRF-CEM leukemia) [µM]
CCCCCCCCOCC(O)COC (stereo unspecified)	> 100	> 100	> 100	> 100	> 100	> 100	> 100	> 100	–	–	–	–	–	–	–	–	–	–	–	–
NC(N)=Nc1nc2cc(N)ccc2o1	> 100	–	> 100	> 100	> 100	> 100	> 100	> 100	–	–	–	–	–	–	–	–	–	–	–	–
COc1cc(OC)c(Oc2cccc(OC)c2OC)c(OC)c1	> 100	> 100	> 100	> 100	> 100	> 100	> 100	–	–	–	–	–	–	–	–	–	–	–	–	–
COc1cc2c3c(c1OC)C1(C=CC(=O)C=C1)CC3N(C(=O)OC(C)(C)C(Cl)(Cl)Cl)CC2 (stereo unspecified)	50.9	38.4	87.7	32.4	22.4	–	40.3	23.6	–	–	–	–	–	–	–	–	–	–	–	–
O=C(Nc1ccc(Cl)cc1Cl)c1c/c(=N\O)c2ccc(O)cc2o1	> 100	> 100	> 100	> 100	> 100	–	> 100	> 100	–	–	–	–	–	–	–	–	–	–	–	–
C=C1c2c(C)nn(-c3ccccc3)c2N(C)C23C[C@@H]1C1(C)c4c(C)nn(-c5ccccc5)c4N(C)C(C)(C[C@H]12)C3 (stereo partly specified)	–	> 100	–	> 100	31.6	> 100	> 100	> 100	> 100	7.99	4.44	5.67	80.1	6.21	6.04	> 100	4.49	3.67	–	–
CCSc1sc(-c2ccc(C)cc2)nc1[P+](c1ccccc1)(c1ccccc1)c1ccccc1	1.35	1.56	2.14	0.881	–	1.62	1.05	1.18	0.376	0.273	–	0.394	2.05	0.47	–	–	0.275	0.315	0.488	0.377
COC(=O)c1ccc2n[se]nc2c1	> 100	> 100	> 100	> 100	> 100	> 100	> 100	> 100	–	–	–	–	–	–	–	–	–	–	–	–
CC(C)(C)NC(=O)C12C3C4C1C1C2C3C41I (stereo unspecified)	> 100	> 100	> 100	> 100	> 100	> 100	–	> 100	–	–	–	–	–	–	–	–	–	–	–	–
C[N+](C)(C)CC(=O)NC(=O)N/N=C\C(CC#N)CN(Cc1ccccc1)Cc1ccccc1 (stereo unspecified)	> 100	> 100	> 100	> 100	> 100	> 100	> 100	> 100	–	–	–	–	–	–	–	–	–	–	–	–
CN1CCN(c2nc(NCCNc3ccnc4cc(Cl)ccc34)c3ccccc3n2)CC1	–	13.3	4.84	15.2	10.1	10.4	6.26	10.8	3.35	3.64	2.3	2.74	9.58	3.11	16	37	2.15	3.02	–	0.527
O=c1c2ccccc2oc2nccnc12	> 100	> 100	> 100	> 100	> 100	> 100	> 100	> 100	–	–	–	–	–	–	–	–	–	–	–	–
NNC(=S)N/N=C(\c1nc2ccc(Cl)cc2[nH]c1=O)C(O)c1ccc(Cl)cc1Cl (stereo unspecified)	> 100	> 100	> 100	> 100	> 100	–	> 100	> 100	–	–	–	–	–	–	–	–	–	–	–	–
Cn1c(=O)c(C2c3ccccc3Oc3c2c(=O)n(C)c2ccccc32)c(O)c2ccccc21 (stereo unspecified)	> 100	> 100	–	> 100	> 100	> 100	> 100	> 100	–	–	–	–	–	–	–	–	–	–	–	–
O=C(N/C(=C\c1cc(Cl)ccc1Cl)c1nc2ccccc2[nH]1)c1ccccc1	> 100	> 100	88.3	96.9	> 100	37.8	> 100	71.9	–	–	–	–	–	–	–	–	–	–	–	–
COc1ccc(-c2cc(-c3ccco3)c(C#N)c(=O)n2C2OC(OC(=O)c3ccccc3)C(OC(=O)c3ccccc3)C2OC(=O)c2ccccc2)cc1 (stereo unspecified)	> 100	> 100	> 100	> 100	> 100	> 100	> 100	> 100	–	–	–	–	–	–	–	–	–	–	–	–
Cc1cccc2c1NC(c1c(C)[nH]c3ccccc13)C2 (stereo unspecified)	–	> 100	> 100	> 100	> 100	> 100	–	> 100	–	–	–	–	–	–	–	–	–	–	–	–
Nc1ccc(Cl)cc1.Nc1ccc(Cl)cc1.Nc1ccc(Cl)cc1.O=C([O-])C(=O)[O-].O=C([O-])C(=O)[O-].[H+].[Ru+5]	> 100	–	> 68	> 100	> 100	–	> 100	> 100	–	> 19.8	0.938	–	–	0.439	–	–	> 100	–	–	0.176
Cc1c(Br)cccc1NC(=O)c1sc2nc3c(cc2c1N)CN(Cc1ccccc1)CC3	–	> 50	> 50	> 50	5.58	> 50	8.89	> 50	0.289	0.343	0.242	0.208	15.4	1.6	0.136	10.5	0.523	0.165	–	0.182
Cc1cc(C)c(-c2noc(-c3ccc(Cl)cc3)c2C2=NCCN2)c(C)c1	> 100	> 100	74.7	36.2	34.3	36	> 100	57.4	–	–	–	–	–	–	–	–	–	–	–	–
O=C1/C=C(/c2ccc(O)cc2)[C@H](O)Cc2ccc(OC3OC(CO)C(O)C(O)C3O)cc2O1 (stereo partly specified) (tested in a mixture with another compound)	> 100	> 100	–	> 100	> 100	–	> 100	> 100	–	–	–	–	–	–	–	–	–	–	–	–
